Results from patent publication US20240092835A1, “NOVEL PEPTIDES CAPABLE OF ALTERING NK CELL ACTIVITY” (Massachusetts Institute of Technology, priority 2022, published 2024).
Where no end group is shown, it is not given here.

How the values were obtained:
NKG2A−/NKG2C− NK cells = assay: NK cell activation markers in control NKG2A-/NKG2C- NK cells incubated with peptide and K562 expressing HLA-E; type: cell-based, human
How it was run: (§1)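 Percent-positive cells for NK activation surface markers were measured after NK cells met peptide-treated K562 cells expressing HLA-E. A decrease in that fraction was scored as inhibition and an increase as activation; NKG2A−/NKG2C− cells served as controls.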

NKG2A−/NKG2C+ NK cells [1] = assay: NKG2A-/NKG2C+ NK cell activation with peptide and RMA-S cells expressing HLA-E; type: cell-based; conditions: RMA-S cells expressing HLA-E, NKG2A−/NKG2C+ NK cells
Procedure: An antigen processing-defective lymphoma cell line (RMA-S), with a low-level expression of HLA-E, were incubated with the novel peptides to determine the inhibitory strength on NKG2A−/NKG2C+NK cells relative to positive control sequences with differential effects ([…] (SEQ ID NO: 19)/VMAPRTLFL (SEQ ID NO: 18)). The effects of the peptides on NK cell inhibition were determined by measuring four markers of NK cell activation (CD107a, IFNG, TNF, CCL3) in NKG2A−/NKG2C+NK cells (FIGS. 2A-2D). Activation was indicated by an increase in percent cells positive for cell surface markers.

NKG2A−/NKG2C+ NK cells [2] = assay: NK cell activation markers in NKG2A-/NKG2C+ NK cells incubated with peptide and K562 expressing HLA-E (activation); type: cell-based, human; conditions: for effect on NKG2A−/NKG2C+ NK cell activation (in words): K562 expressing HLA-E, CD107a, IFNG, TNF, CCL3; for percentage of CCL3+ NK cells / percentage of CD107+ NK cells / percentage of IFNG+ NK cells / percentage of TNF+ NK cells: NKG2A-/NKG2C+ NK cells, K562/HLA-E
How it was run: as §1

## TGPWRSLWI [human3, TGPWRSLWI]
NKG2A−/NKG2C− NK cells; Trial 1
  percentage CCL3+ NK cells: 38.1%
  percentage CD107+ NK cells: 28.9%
  percentage TNF+ NK cells: 4.31%
  percentage of IFNG+ NK cells: 17.2%
NKG2A−/NKG2C− NK cells; Trial 2
  percentage CCL3+ NK cells: 61%
  percentage CD107+ NK cells: 37.9%
  percentage TNF+ NK cells: 8.81%
  percentage of IFNG+ NK cells: 26.9%
NKG2A−/NKG2C− NK cells; Trial 3
  percentage CCL3+ NK cells: 55.4%
  percentage CD107+ NK cells: 50.4%
  percentage TNF+ NK cells: 20.8%
  percentage of IFNG+ NK cells: 44%
NKG2A−/NKG2C− NK cells; Trial 4
  percentage CCL3+ NK cells: 36.6%
  percentage CD107+ NK cells: 32.6%
  percentage TNF+ NK cells: 11.3%
  percentage of IFNG+ NK cells: 21.2%
NKG2A−/NKG2C− NK cells; Trial 5
  percentage CCL3+ NK cells: 31%
  percentage CD107+ NK cells: 26.2%
  percentage TNF+ NK cells: 8.06%
  percentage of IFNG+ NK cells: 19.1%
NKG2A−/NKG2C− NK cells; Trial 6
  percentage CCL3+ NK cells: 26.5%
  percentage CD107+ NK cells: 18.6%
  percentage TNF+ NK cells: 4.18%
  percentage of IFNG+ NK cells: 8.37%
NKG2A−/NKG2C+ NK cells [1]
  increase in CCL3+ NK cells (in words): slight increases
  increase in CD107a+ NK cells (in words): slight increases
  increase in IFNG+ NK cells (in words): no increase
  increase in TNF+ NK cells (in words): no increase
NKG2A−/NKG2C+ NK cells [2]; listed as SEQ ID NO. 2
  effect on NKG2A−/NKG2C+ NK cell activation (in words): activate
NKG2A−/NKG2C+ NK cells [2]; listed as h3
  effect on NKG2A−/NKG2C+ NK cell activation (in words): activated
NKG2A−/NKG2C+ NK cells [2]; Trial 1
  percentage of CCL3+ NK cells: 60.9%
  percentage of CD107+ NK cells: 50.7%
  percentage of IFNG+ NK cells: 27.8%
  percentage of TNF+ NK cells: 19.1%
NKG2A−/NKG2C+ NK cells [2]; Trial 2
  percentage of CCL3+ NK cells: 75.8%
  percentage of CD107+ NK cells: 63.4%
  percentage of IFNG+ NK cells: 36.4%
  percentage of TNF+ NK cells: 24.8%
NKG2A−/NKG2C+ NK cells [2]; Trial 3
  percentage of CCL3+ NK cells: 75.7%
  percentage of CD107+ NK cells: 73.9%
  percentage of IFNG+ NK cells: 55.4%
  percentage of TNF+ NK cells: 47.1%
NKG2A−/NKG2C+ NK cells [2]; Trial 4
  percentage of CCL3+ NK cells: 64.5%
  percentage of CD107+ NK cells: 62.3%
  percentage of IFNG+ NK cells: 46.9%
  percentage of TNF+ NK cells: 37.4%
NKG2A−/NKG2C+ NK cells [2]; Trial 5
  percentage of CCL3+ NK cells: 65.7%
  percentage of CD107+ NK cells: 61%
  percentage of IFNG+ NK cells: 43.5%
  percentage of TNF+ NK cells: 37.7%
NKG2A−/NKG2C+ NK cells [2]; Trial 6
  percentage of CCL3+ NK cells: 46%
